Reference: ChEMBL document CHEMBL1811880, “Studies on quinones. Part 47. Synthesis of novel phenylaminophenanthridinequinones as potential antitumor agents” (Eur J Med Chem, 2011)

Tests used:
[1] = test system: SK-MES-1; test: Anticancer activity against human SKMES1 cells after 3 days by MTT assay; type: functional, cell-based; settings: SK-MES-1, 72 h
[2] = test system: J82; test: Anticancer activity against human J82 cells after 3 days by MTT assay; type: functional, cell-based; settings: J82, 72 h
[3] = test system: MRC5; test: Selectivity index, ratio IC50 for human MRC5 cells to IC50 for human J82 cells; type: functional
[4] = test system: AGS; test: Anticancer activity against human AGS cells after 3 days by MTT assay; type: functional, cell-based; settings: 72 h
[5] = test system: MRC5; test: Anticancer activity against human MRC5 cells after 3 days by MTT assay; type: ADME, cell-based; settings: MRC5, 72 h
[6] = test system: MRC5; test: Selectivity index, ratio IC50 for human MRC5 cells to IC50 for human AGS cells; type: functional
[7] = test system: MRC5; test: Selectivity index, ratio IC50 for human MRC5 cells to IC50 for human SKMES1 cells; type: functional

| Compound | IC50 [1] | IC50 [2] | Ratio IC50 [3] | IC50 [4] | IC50 [5] | Ratio IC50 [6] | Ratio IC50 [7] |
| --- | --- | --- | --- | --- | --- | --- | --- |
| COc1ccc(OC)c(NC2=CC(=O)c3cnc4cccc(O)c4c3C2=O)c1 | 13.5 µM | 0.61 µM | 28 | 19.8 µM | 17.2 µM | – | – |
| COc1ccc(NC2=CC(=O)c3cnc4c(c3C2=O)C(=O)CCC4)cc1 | 3.7 µM | 4 µM | – | 2.2 µM | 4.8 µM | – | – |
| O=C1CCCc2nc(-c3ccco3)c3c(c21)C(=O)C=C(Nc1ccccc1)C3=O | 3.1 µM | 2.4 µM | – | 0.58 µM | 2.7 µM | – | – |
| COc1ccc(OC)c(NC2=CC(=O)c3c(cnc4c3C(=O)CCC4)C2=O)c1 | 1.8 µM | 2.5 µM | – | 0.32 µM | 2.6 µM | 6 | 6 |
| O=C1CCCc2nc(-c3ccsc3)c3c(c21)C(=O)C=CC3=O | 76.7 µM | > 100 µM | – | 37.1 µM | 71 µM | – | – |
| CN(C1=CC(=O)c2c(cnc3c2C(=O)CCC3)C1=O)c1ccccc1 | 10.6 µM | 12.9 µM | – | 4.7 µM | 7.5 µM | – | – |
| Cc1nc2c(c3c1C(=O)C(Nc1ccccc1)=CC3=O)C(=O)CCC2 | 5.7 µM | 4.2 µM | – | 0.65 µM | 2 µM | – | – |
| CN(C1=CC(=O)c2cnc3c(c2C1=O)C(=O)CCC3)c1ccccc1 | 8.7 µM | 8.4 µM | – | 8.3 µM | 7.3 µM | – | – |
| Cc1nc2c(c3c1C(=O)C(Nc1ccc(F)cc1)=CC3=O)C(=O)CCC2 | 3.3 µM | 3.8 µM | – | 0.79 µM | 3 µM | – | – |
| O=C1CCCc2nc(-c3ccccc3)c3c(c21)C(=O)C=CC3=O | 73 µM | 57.6 µM | – | 13.9 µM | 31.2 µM | – | – |
| COc1ccccc1NC1=CC(=O)c2c(c(C)nc3c2C(=O)CCC3)C1=O | 4.3 µM | 3.7 µM | – | 0.22 µM | 1.6 µM | – | – |
| O=C1CCCc2nc(-c3ccsc3)c3c(c21)C(=O)C=C(Nc1ccccc1)C3=O | 2.9 µM | 2.5 µM | – | 0.35 µM | 2.8 µM | 6 | 6 |
| COc1ccc(OC)c(NC2=CC(=O)c3c(cnc4cccc(O)c34)C2=O)c1 | 0.63 µM | 1.4 µM | – | 0.18 µM | 0.53 µM | – | – |
| COc1ccc(OC)c(NC2=CC(=O)c3cnc4c(c3C2=O)C(=O)CCC4)c1 | 21.3 µM | 56.7 µM | – | 32.9 µM | 46.4 µM | – | – |
| O=C1CCCc2nc(-c3ccccc3)c3c(c21)C(=O)C=C(Nc1ccccc1)C3=O | 2.8 µM | 2.9 µM | – | 0.33 µM | 2.7 µM | 6 | 6 |
| O=C1C=CC(=O)c2c1cnc1c2C(=O)CCC1 | – | 15.8 µM | – | – | – | – | – |
| O=C1C(Nc2ccccc2)=CC(=O)c2c1cnc1c2C(=O)CCC1 | 1.3 µM | 2.1 µM | – | 0.23 µM | 1.4 µM | 6 | 6 |
| COc1ccc(NC2=CC(=O)c3c(cnc4c3C(=O)CCC4)C2=O)cc1 | 2 µM | 2.8 µM | – | 0.47 µM | 2.6 µM | – | – |
| COc1ccc(OC)c(NC2=CC(=O)c3c(c(C)nc4c3C(=O)CCC4)C2=O)c1 | 21.7 µM | 7.1 µM | – | 1.4 µM | 5 µM | – | – |
| CCN(C1=CC(=O)c2c(cnc3c2C(=O)CCC3)C1=O)c1ccccc1 | 11.7 µM | 15.2 µM | – | 4.4 µM | 8.6 µM | – | – |
| COc1ccc(NC2=CC(=O)c3c(c(C)nc4c3C(=O)CCC4)C2=O)cc1 | 4.1 µM | 3 µM | – | 1.2 µM | 5.2 µM | – | – |
| O=C1CCCc2nc(-c3ccco3)c3c(c21)C(=O)C=CC3=O | 96.9 µM | 80.4 µM | – | 68 µM | 59 µM | – | – |
| COc1cc([C@@H]2c3cc4c(cc3[C@@H](O[C@@H]3O[C@@H]5CO[C@@H](C)O[C@H]5[C@H](O)[C@H]3O)[C@H]3COC(=O)[C@H]23)OCO4)cc(OC)c1O [ETOPOSIDE] | – | 0.8 µM | – | – | – | – | – |
| Cc1nc2c(c3c1C(=O)C(Nc1ccc(O)cc1)=CC3=O)C(=O)CCC2 | 3.2 µM | 1.9 µM | – | 1.2 µM | 2.6 µM | – | – |
| O=C1C=C(Nc2ccccc2)C(=O)c2c1cnc1c2C(=O)CCC1 | 7.5 µM | 8.1 µM | – | 3.9 µM | 5.9 µM | – | – |
| CCN(C1=CC(=O)c2cnc3c(c2C1=O)C(=O)CCC3)c1ccccc1 | 17.7 µM | 19.5 µM | – | 17.1 µM | 19.6 µM | – | – |
